# In patent US6906108B2, “Extracts of vetiver oil as repellent and toxicant to ants, ticks, and cockroaches” (Board of Supervisors of Louisiana State University and …, priority 2001, dated 2005):
# Legend:
# [1] = test system: Imported red fire ants, Solenopsis invicta; assay: Fire ant three-chambered container bioassay with treated sand (repellency and mortality); type: in vivo; details: for Percent ants in the sand area after 15 min / Number of ants (% ± SE) in the sand area after 15 min (test after 40 days): mean ± SE; for Living ants found in the sand area over seven days: FIG. 1; for Living ants found in the sand area over 7 days: FIG. 3
# Excerpt: Nootkatone was purchased from a commercial source (Lancaster Synthesis Inc. Windham, N.H.). The source of the vetiver oil was The Good Scents Company (Oak Creek, Wis.). Three-chambered clear plastic containers (17×8×4 cm; Pioneer Packaging Co., North Dixon, Ky.) were used to test the effect of nootkatone and vetiver oil on the fire ants. Each rectangular container (17×8×4 cm) was divided into three equal compartments with two inner walls. A small hole (0.5 cm diameter) was melted at the bottom of each of the inner walls to permit fire ant access to all chambers. The top inner sides of the containers were coated with FLUON® (Northern Products, Inc., Woonsocket, R.I.) to prevent ants from escaping. Into the far left chamber, designated the “nest area,” was placed a 55 mm #2 Whatman filter paper circle (Whatman International, Maidstone, England) moistened with 0.5 ml ddH2O to serve as a substrate. For a food source, a second 55 mm #2 Whatman filter paper circle was moistened with 0.5 ml 10% sucrose solution and placed in the far right chamber (“feeding area”). In the middle chamber, 30 g of #4 fine blasting sand (Easy Crete, Inc., Greenwell Springs, La.) moistened with 3 ml ddH2O was added. The sand had previously been treated by mixing with ethanol only (the controls) or with ethanol and solutions of nootkatone or vetiver oil to obtain final concentrations of 10 μg/g sand and 100 μg/g sand. The treated sand was allowed to air-dry for 2 hr in a ventilated hood before placing into the container.
# Imported red fire ants, Solenopsis invicta, were collected the day before beginning the experiment from two Louisiana colonies (Colony A and Colony B) whose nests were 50 m apart. For each container, 30 workers were placed in the nest area in a small Petri dish (3.5 cm diameter) with the lid closed initially. The total number of containers was 30; 15 for each colony. For each colony, three replicates were established for each of the following treatments: a control; 10 μg/g nootkatone ([…]), 100 μg/g nootkatone (“Noot-100”), 10 μg/g vetiver oil (“Vet-10”), […].
# After the ants were acclimated, the lid on the Petri dish was removed. Ant behavior was observed during the first 15 min for the following: time for the first ant to cross into the middle chamber; time for the first ant to cross into the feeding area; and number of ants in the middle chamber after 5, 10, and 15 min. The plastic containers were kept closed with lids in a thermostatic chamber at 27° C. for one week. Each day at the same time, the numbers of live and dead ants in each chamber were noted.
# To test for effectiveness of nootkatone and vetiver oil after the passage of time, the above experiment was repeated 40 days later with sand that had been treated at the same time as the above experiment. For 40 days, the sand had been maintained in separate chambers with non-hermetic lids in a dark room at room temperature. For this second experiment, fire ants were freshly collected from two different Louisiana colonies.
# The number of ants, expressed as a percent of the total number in the container, found in the treated area after the first 15 minutes was compared using a two-way ANOVA followed by Newman-Keuls post-hoc test, considering the factors “colony” (A, B) and “treatment” (Control, Noot-100, Noot-10, Vet-100, Vet-10). Data for both the number of live and dead ants (expressed as percent of the total) during the seven days of the experiment were analyzed with 2-way ANOVA for repeated measures followed by Newman-Keuls post-hoc tests, considering the variables “colony” and “treatment” and the variable “day” as the repeated factor. All data were analyzed using Statistica 5.5 (1999 edition, Statsoft Inc., Tulsa, Okla.).
# [2] = test system: ticks (Ixodes scapularis); assay: Tick Petri dish bioassay with treated sand (repellency and toxicity); type: in vivo
# Experimental: To test the effectiveness of nootkatone against ticks, ticks (Ixodes scapularis) were collected from Idlewild, La. Nootkatone efficiacy was tested relative to a known repellent, N,N-diethyl-m-toluamide (“Deet”). REPEL®, which contains 27.55% Deet, was purchased locally from a retail garden store.
# The bioassay was conducted using Petri dishes (5 cm diameter and 1 cm height). To ensure adequate moisture for the ticks, 1 ml of a hot agar solution (1.5% in H2O) was spread evenly on the inside surfaces of the Petri dish, including the top, bottom, and edges. After the agar cooled, sand that was treated as described below was spread evenly on the inside surfaces of the Petri dish. The sand was held in place by the agar.
# For the treated sand, either 2 mg nootkatone or 100 mg REPEL® was initially dissolved in 2 ml ethanol, and then 200 μl of the solution was mixed with 2 g sand that had been autoclaved and cooled. The control was autoclaved sand with 200 μl ethanol only added. One half of the surfaces in the Petri dishes were covered with 2 g treated sand, and the other half with 2 g untreated sand. In the nootkatone-treated Petri dishes, the final concentration was 200 μg/dish; while in the Deet treated Petri dishes, the final concentration was 2.75 mg/dish. Control Petri dishes were prepared by covering all sides with untreated sand. One tick was added to each Petri dish, and the top replaced. The number of replicates were as follows: control, 6; nootkatone, 9; and Deet, 8. […] Repellent activity was noted if the tick was found on the untreated side of the Petri dish. The ticks in the control Petri dishes were randomly distributed on the left and right sides.
# The above experiment was repeated with ticks (Ix. scapularis) collected from Hammond, La. The number of replicates in this experiment were as follows: controls, 8; nootkatone, 10; and Deet, 8.
# [3] = 200 μg/dish vs 2.75 mg/dish Deet
# [4] = 200 μg/dish, 10 replicates, ticks from Hammond
# [5] = 200 μg/dish, ticks from Hammond
compound,measurement,setting,value
"C=C(C)C1CCC2=CC(=O)CC(C)C2(C)C1 (stereo not shown) [nootkatone, 4,4a,5,6,7,8-hexahydro-6-isopropenyl-4,4a-dimethyl-2(3H)-naphthalone]",Percent ants in the sand area after 15 min,"[1]; 10 μg/g sand, sand treated 2 hr prior",23.89 ± 3.35 b %
same,Number of ants (% ± SE) in the sand area after 15 min (test after 40 days),"[1]; 10 μg/g sand, sand treated 40 days prior",26.11 ± 3.07 b %
same,Percent ants in the sand area after 15 min,"[1]; 100 μg/g sand, sand treated 2 hr prior",13.33 ± 2.42 b %
same,Number of ants (% ± SE) in the sand area after 15 min (test after 40 days),"[1]; 100 μg/g sand, sand treated 40 days prior",13.89 ± 1.99 b %
same,Living ants found in the sand area over seven days,"[1]; highest concentration (100 μg/g), sand treated 2 hr prior",Almost no ants
same,Cumulative mortality over 7 days,"[1]; highest concentration (100 μg/g), sand treated 2 hr prior, FIG. 2",highest
same,Living ants found in the sand area over 7 days,"[1]; highest concentration (100 μg/g), sand treated 40 days prior",Almost no ants
same,Cumulative mortality over 7 days,"[1]; highest concentration (100 μg/g), sand treated 40 days prior, FIG. 4",always greatest
same,Cumulative mortality over 7 days,"[1]; lower concentration (10 μg/g), sand treated 40 days prior, compared with highest concentration, FIG. 4",significantly lower
same,Living ants found in the sand area over seven days,"[1]; lowest concentration (10 μg/g), sand treated 2 hr prior, vs controls",substantially lower numbers of ants
same,Living ants found in the sand area over 7 days,"[1]; lowest concentration (10 μg/g), sand treated 40 days prior, vs controls",significantly lower numbers of ants
same,Effectiveness forty days after the initial application,[1]; sand treated 40 days prior,still effective
same,Overall activity against ticks,[2]; 200 μg/dish,effective repellent and toxicant
same,Duration of repellent activity compared with Deet,[2]; [3],longer than Deet
same,Toxicant strength compared with Deet,[2]; [3],stronger toxicant than Deet
same,Ticks dead after 90 hr (number),"[2]; 200 μg/dish, 9 replicates, one tick per dish, ticks from Idlewild",four
same,Ticks dead at 24 hr (number),[2]; [4],one
same,Ticks dead at 72 hr (number),[2]; [4],four
same,Ticks dead at 96 hr (number),[2]; [4],nine
same,Ticks dead at 72 hr (percent),[2]; [5],40%
same,Ticks dead at 96 hr (percent),[2]; [5],90%
same,Ticks dead after 90 hr (percent),"[2]; 200 μg/dish, ticks from Idlewild",50%
